Test results: patent US20230330134A1, “METHOD OF PROPHYLAXIS OF CORONAVIRUS AND/OR RESPIRATORY SYNCYTIAL VIRUS INFECTION” (Starpharma Pty Ltd., priority 2020, published 2023)
Like-named read-outs stand apart in the source and are kept apart here.

What was measured:
Vero E6 cells [1] = test system: Vero E6 cells
SARS-CoV-2 = format: cell-based; conditions: 25 mg/mL incubated with 10^5 TCID50/mL virus, 37° C., 60 minutes; titrated on Vero cells
[2] = test system: SARS-CoV-2 (2019-nCoV/USA-WA1/2020); test: microbe, parasite or virus in culture; format: cell-based; conditions: Day 4 post-infection
[3] = test system: Coronavirus strain NL63 (ZeptoMetrix Corp. #0810228CF); conditions: final 28.76 mg/mL; for CPE in four replicates, Test: Vero
Calu-3 cells = conditions: Day 4
[4] = Hygroscopic assessment (European Pharmacopoeia 5.11); format: physicochemical
Description: A hygroscopic assessment was performed as described in European Pharmacopoeia 5.11. Results from the assay are interpreted as follows: deliquescent -sufficient water is absorbed to form a liquid; very hygroscopic - increase in mass is equal to or greater than 15%; hygroscopic - increase in mass is less than 15% and equal to or greater than 2%; slightly hygroscopic - increase in mass is less than 2% and equal to or greater than 0.2% and not hygroscopic - if increase in mass is less than 0.2%, then the compound is not hygroscopic.

Hep-2 cells = test: Product cytotoxicity (TC50), CCK-8 assay; format: cell-based
Vero E6 cells [5] = conditions: Day 4
[6] = target: SARS-CoV-2 spike RBD recombinant protein (Severe acute respiratory syndrome coronavirus 2, UniProt P0DTC2); format: cell-based; conditions: 1 mg/mL in PBS, 1 hour prior to challenge; confocal microscopy
[7] = test system: SARS-CoV-2 (hCoV-19/Australia/VIC01/2020); format: cell-based; conditions: 0.345 mg/mL added 0 min to 6 h post-infection; Vero E6; MOI 1; all time points
[8] = rats
HCT-8 cells = conditions: no virus
[9] = test system: MERS-CoV (HCoV-EMC) Spike-pseudotyped GFP reporter lentiviral particles; format: cell-based
[10] = test system: Coronavirus strain OC43 (ZeptoMetrix Corp. #0810024CF); conditions: final 28.76 mg/mL; for CPE in four replicates, Test: HCT-8
[11] = test system: SARS-CoV-2 2019-nCoV/USA-WAl/2020; test: Antiviral activity in primary human bronchial epithelial cells (HBEpC); format: cell-based; conditions: 1.1, 3.3 and 10 mg/mL added 1 hour prior to infection, day 4, maximum
[12] = 60 seconds exposure, dilution (-Log10) -6
[13] = 60 seconds exposure, dilution (-Log10) -7
[14] = 60 seconds exposure, listed as SPL7013 aqueous solution
[15] = 60 minutes exposure, dilution (-Log10) -6
[16] = 60 minutes exposure, dilution (-Log10) -7

With astodrimer sodium [SPL7013] the cytotoxicity (Vero E6 cells [1]) was “not observed”, the viricidal activity (SARS-CoV-2) was “stopped all virus growth” and the EC50 ([2]; added 1-hour post-infection, Calu-3) was 30 µg/mL. For the same substance, the EC50 ([2]; added 1-hour post-infection, Vero E6) was 19 µg/mL, the EC50 ([2]; added 1-hour pre-infection, Calu-3) was 37 µg/mL and the EC50 ([2]; added 1-hour pre-infection, Vero E6) was 32 µg/mL. The EC50 ([2]; added at time of infection, Calu-3) was 35 µg/mL, the EC50 ([2]; added at time of infection, Vero E6) was 20 µg/mL and the “CPE in four replicates, Test” value [3, 12] was 0000. The “CPE in four replicates, Test” value [3, 13] was 0000, the “Log10 Reduction” value ([3]; 60 seconds exposure) was 0.50 log10 and the “TCID50 (log10), Test” value ([3]; 60 seconds exposure) was 5.25 log10. The “Percent Reduction” value [3, 14] was 68.38%, the “CPE in four replicates, Test” value [3, 15] was 0000 and the “CPE in four replicates, Test” value [3, 16] was 0000. For the same substance, the “Log10 Reduction” value ([3]; 60 minutes exposure) was 0.75 log10, the “Percent Reduction” value ([3]; 60 minutes exposure) was 82.22% and the “TCID50 (log10), Test” value ([3]; 60 minutes exposure) was 5.00 log10. For the same substance, the CC50 (Calu-3 cells) was 21760 µg/mL, the hygroscopicity class [4] was “very hygroscopic (increase in mass is equal to or greater than 15%)” and the increase in mass [4] was 21.97%. The “TC50, Best Fit Value” (Hep-2 cells; Post Treatment) was 30900 µg/mL, the “TC50, Best Fit Value” (Hep-2 cells; PreTreatment) was 35640 µg/mL and the CC50 (Vero E6 cells [5]) was 15090 µg/mL. The “binding of SARS-CoV-2 spike protein to cells expressing the hACE2 receptor” value [6] was “no detectable binding”, the “infectious virus titer in supernatant (TCID50) at 8 hours post-infection” value [7] was “below the lower limit of detection” and the “SPL7013 in pooled plasma sample” value ([8]; 1% group, one 3 hr sample (called an aberration)) was 0.635 µg/mL. For the same substance, the “SPL7013 in pooled plasma samples (LLOQ)” value ([8]; 1% or 3% Nasal Spray 4 times daily for 7 days, Day 1 and Day 7, pre-dose to 6 hr, all samples but one) was under 0.5 µg/mL, the “TCID50 (log10), CTC (Cytotoxicity Control)” value (HCT-8 cells) was 1.50 log10 and the “CPE in four replicates, CTC (Cytotoxicity Control)” value (from here on “CPE in four replicates, CTC”) (HCT-8 cells; dilution (-Log10) -2) was 0000. The “CPE in four replicates, CTC” value (HCT-8 cells; dilution (-Log10) -3) was 0000, the “CPE in four replicates, CTC” value (HCT-8 cells; dilution (-Log10) -4) was 0000 and the “binding/infection of Vero E6 cells by spike-pseudotyped lentivirus (GFP-positive cells, FACS)” value [9] was “potently inhibited”. The “CPE in four replicates, Test” value [10, 12] was 0000, the “CPE in four replicates, Test” value [10, 13] was 0000 and the “Log10 Reduction” value ([10]; 60 seconds exposure) was 0.50 log10. The “TCID50 (log10), Test” value ([10]; 60 seconds exposure) was 5.50 log10, the “Percent Reduction” value [10, 14] was 68.38% and the “CPE in four replicates, Test” value [10, 15] was “+000”. The “CPE in four replicates, Test” value [10, 16] was 0000, the “Log10 Reduction” value ([10]; 60 minutes exposure) was 0.50 log10 and the “Percent Reduction” value ([10]; 60 minutes exposure) was 68.38%. For the same substance, the “TCID50 (log10), Test” value ([10]; 60 minutes exposure) was 5.25 log10, the “reduction of infection in the plaque assay” value [11] was “up to 95%” and the “reduction of infection vs virus control by nucleocapsid ELISA” value [11] was “up to 98%”.
